# Laboratory results: publication PMC4506051, “Pharmacokinetic Profiles of Active Ingredients and Its Metabolites Derived from Rikkunshito, a Ghrelin Enhancer, in Healthy Japanese Volunteers: A Cross-Over, Randomized Study” (PLoS ONE, 2015)
# Legend:
# [1] = Exploratory trial: plasma concentration of rikkunshito ingredients after single oral rikkunshito 7.5 g; format: in vivo; conditions: mean ± S.D., n = 4
# How it was run: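 Plasma and urine levels were measured by LC–MS/MS after one 7.5 g oral dose of rikkunshito. Samples were collected before dosing and at 0.5–8 h for blood, or in 0–4 h and 4–8 h fractions for urine. Synephrine was determined after protein-removal plate cleanup; the other ingredients after β-glucuronidase deconjugation (2 h, 37°C) and SPE.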
# [2] = Stability of ingredients in gastric pH solution (pH 1.2, 37°C); format: physicochemical; conditions: pH 1.2
# Experimental: Rikkunshito gradually dissolved in acidic solution (pH 1.2) at 37°C, and the concentration of atractylodin after adding 0.25, 0.5, 1, and 2 h was measured by gas chromatography–mass spectrometry.
# [3] = 7.5 g dosage; cited from earlier work
# [4] = Method validation: stability in blood
# [5] = Method validation: long-term stability in plasma
# [6] = Method validation: short-term stability in plasma
# [7] = Method validation: freeze-thaw stability in plasma; conditions: −30°C to −10°C, 3 cycles
# [8] = Method validation: post-preparative stability (autosampler); conditions: autosampler set at 4°C
# [9] = Method validation: stability in standard, stock and working solution; conditions: for Stock solution stability, RR: 0.1 mg/mL (naringenin 0.5 mg/mL)
# [10] = Dose proportionality (linearity) test by power model for C max and AUC0-last; conditions: for Dose proportionality test using power model, Inference: linear when 90% CI of β included 1, CIlower ≥0.8, and CIupper ≤1.25; for Dose proportionality test using power model, β: rikkunshito 2.5, 5.0 or 7.5 g
# Experimental: The dose proportionality was analyzed via a power model [21, 22]. […] Evaluation of linearity of the dosage-exposure relationship was conducted with Phoenix WinNonlin and SAS 9.2 (SAS Institute, Inc., Cary, NC).
structure (smiles),measurement,setting,value
"COc1ccc(-c2oc3c(OC)c(OC)c(OC)c(OC)c3c(=O)c2OC)cc1OC [Heptamethoxyflavone, 3,3′,4′,5,6,7,8-heptamethoxyflavone]","Plasma concentration, 0 h","[1]; 0 h (preadministration), single oral rikkunshito 7.5 g",BQL
same,concentration at 0.5 h,"[1]; human, plasma, 0.5 h after single oral rikkunshito 7.5 g, read-out: Plasma concentration, 0.5 h",0.171 ± 0.18 ng/mL
same,concentration at 1 h,"[1]; human, plasma, 1 h after single oral rikkunshito 7.5 g",0.253 ± 0.301 ng/mL
same,concentration at 2 h,"[1]; human, plasma, 2 h after single oral rikkunshito 7.5 g, read-out: Plasma concentration, 2 h",0.157 ± 0.187 ng/mL
same,concentration at 4 h,"[1]; human, plasma, 4 h after single oral rikkunshito 7.5 g, read-out: Plasma concentration, 4 h",0.0569 ± 0.0821 ng/mL
same,concentration at 8 h,"[1]; human, plasma, 8 h after single oral rikkunshito 7.5 g, read-out: Plasma concentration, 8 h",0.00613 ± 0.0123 ng/mL
same,"Stability in gastric pH solution, Quantitative value",[2]; 0.5 h,25.5 ng/mL
same,"Stability in gastric pH solution, Quantitative value",[2]; 1 h,30.7 ng/mL
same,"Stability in gastric pH solution, Quantitative value",[2]; 2 h,28.7 ng/mL
same,Maximum plasma concentration in the preliminary pharmacokinetics study,[3],0.253 ± 0.301 ng/mL
same,"Stability in blood, RR","[4]; on ice 2 h, higher concentration (800 / 320 / 4000 pg/mL)",92.3%
same,"Stability in blood, RR","[4]; on ice 2 h, lower concentration (20 / 8 / 100 pg/mL)",97.5%
same,"Stability in blood, RR","[4]; room temperature 2 h, higher concentration (pachymic acid 800, heptamethoxyflavone 320, naringenin 4000 pg/mL)",96.0%
same,"Stability in blood, RR","[4]; room temperature 2 h, lower concentration (pachymic acid 20, heptamethoxyflavone 8, naringenin 100 pg/mL)",107.1%
same,"Long-term stability, RR","[5]; freezer −30°C to −10°C, 13 days, lower concentration (pachymic acid 20, heptamethoxyflavone 8 pg/mL)",90.3%
same,"Long-term stability, RR","[5]; freezer, 13 days, higher concentration (pachymic acid 800, heptamethoxyflavone 320 pg/mL)",113.1%
same,"Long-term stability, RR","[5]; freezer, 39 days, higher concentration (800 / 320 pg/mL)",99.7%
same,"Long-term stability, RR","[5]; freezer, 39 days, lower concentration (20 / 8 pg/mL)",85.5%
same,"Long-term stability, RR","[5]; freezer, 228 days, higher concentration (800 / 320 pg/mL)",87.5%
same,"Long-term stability, RR","[5]; freezer, 228 days, lower concentration (20 / 8 pg/mL)",85.0%
same,"Short-term stability, RR","[6]; room temperature 25 h, higher concentration (pachymic acid 800, heptamethoxyflavone 320 pg/mL)",91.2%
same,"Short-term stability, RR","[6]; room temperature 25 h, lower concentration (pachymic acid 20, heptamethoxyflavone 8 pg/mL)",90.3%
same,"Short-term stability, RR","[6]; room temperature (1°C to 30°C) 4 h, higher concentration (800 / 320 / 4000 pg/mL)",103.3%
same,"Short-term stability, RR","[6]; room temperature (1°C to 30°C) 4 h, lower concentration (20 / 8 / 100 pg/mL)",99.5%
same,"Freeze-thaw stability, RR",[7]; higher concentration (800 / 320 / 4000 pg/mL),113.5%
same,"Freeze-thaw stability, RR",[7]; lower concentration (20 / 8 / 100 pg/mL),107.1%
same,"Post-preparative stability, RR","[8]; 24 h, higher concentration (pachymic acid 800, heptamethoxyflavone 320 pg/mL)",86.3%
same,"Post-preparative stability, RR","[8]; 24 h, lower concentration (pachymic acid 20, heptamethoxyflavone 8 pg/mL)",100.3%
same,"Post-preparative stability, RR","[8]; 48 h, higher concentration (800 / 320 / 4000 pg/mL)",90.8%
same,"Post-preparative stability, RR","[8]; 48 h, lower concentration (20 / 8 / 100 pg/mL)",96.5%
same,"Working solution stability, RR","[9]; refrigerator 53 days, higher concentration (pachymic acid 10, heptamethoxyflavone 4, naringenin 50 ng/mL)",100.4%
same,"Working solution stability, RR","[9]; refrigerator 53 days, lower concentration (pachymic acid 0.1, heptamethoxyflavone 0.04, naringenin 0.5 ng/mL)",109.3%
same,"Working solution stability, RR","[9]; refrigerator 128 days, higher concentration (10 / 4 / 50 ng/mL)",98.8%
same,"Working solution stability, RR","[9]; refrigerator 128 days, lower concentration (0.1 / 0.04 / 0.5 ng/mL)",101.6%
same,"Stock solution stability, RR",[9]; refrigerator (1°C to 8°C) 54 days,54 days: 98.7%
same,"Stock solution stability, RR",[9]; refrigerator (1°C to 8°C) 129 days,129 days: 92.7%
same,"Dose proportionality test using power model, Inference",[10]; AUC0-last,Nonlinear
same,"Dose proportionality test using power model, β",[10]; AUC0-last,0.804
same,"Dose proportionality test using power model, Inference",[10]; Cmax,Nonlinear
same,"Dose proportionality test using power model, β",[10]; Cmax,0.817
